The results in this text go back to patent US8946438B2, “Benzamides, production thereof, and use thereof as medicaments” (Boehringer Ingelheim International GmbH, priority 2008, dated 2015).

In this experiment the target is p38 MAP-kinase (Homo sapiens, UniProt Q16539). Put plainly: Enzymatic assay: inhibition of p38 MAP-kinase (phosphorylation of GST-tagged ATF2, chemoluminescence bead readout). The class given is biochemical. The conditions noted are these: inhibitor 1 μM; activated p38 MAP-kinase 1 nM; 4 h preincubation; ATP 100 μM; ATF2 10 nM; read-out: % inhibitory effect at 1 μM. As to the method: In this, the amount of a substrate phosphorylated by the kinase is quantified. The test is carried out as follows:
The kinase reaction is carried out in the presence of HEPES (20 mM, pH 7), MgCl2 (10 mM), DTT (1 mM) and TWEEN20 (0.01%). First, dimethylsulphoxide or inhibitor (final concentration: 1 μM) dissolved in dimethylsulphoxide are placed in a reaction vessel. Then the activated p38 MAP-kinase (final concentration 1 nM) is added and the mixture is incubated for 4 h at ambient temperature. Then a mixture of substrate (GST-tagged ATF2) and ATP is added and everything is incubated together for a further hour (final concentration ATP: 100 μM; final concentration ATF2: 10 nM).
The concentration of phosphorylated ATF2 is quantified by chemoluminescence-induced light emission. For this, a glutathione donor bead (final concentration: 5 μg/ml) which binds to the gluthathione on the ATF2 and phospho-ATF2 antibodies are added to the reaction mixture (final concentration: 3 nM; this binds the phosphate group added by the kinase reaction) to which a Protein A Acceptor Bead (final concentration: 5 μg/ml) binds. These components are dissolved in a buffer which contains 20 mM HEPES pH 7.0, 200 mM NaCL, 80 mM EDTA as well as 0.3% BSA. This reaction mixture is incubated in the dark for 1 hour at ambient temperature. When these beads come physically close, visible light is emitted which is measured in a photometer at 520-620 nm.
To determine the inhibitory activity of the compounds according to the invention a calculation is made to determine the percentage by which the kinase activity is inhibited at a fixed inhibitor concentration of 1 μM. The maximum activity is determined by non-inhibited kinase. The minimum activity or nonspecific background activity is determined using a reaction mixture without kinase. […] Table 2 summarises the degree of inhibition of the enzyme p38 MAP-kinase—as described hereinbefore—of the compounds according to the invention detailed in the section “Preparation of the final compounds”.

p38 MAP-kinase, sequence (Q16539 whole entry): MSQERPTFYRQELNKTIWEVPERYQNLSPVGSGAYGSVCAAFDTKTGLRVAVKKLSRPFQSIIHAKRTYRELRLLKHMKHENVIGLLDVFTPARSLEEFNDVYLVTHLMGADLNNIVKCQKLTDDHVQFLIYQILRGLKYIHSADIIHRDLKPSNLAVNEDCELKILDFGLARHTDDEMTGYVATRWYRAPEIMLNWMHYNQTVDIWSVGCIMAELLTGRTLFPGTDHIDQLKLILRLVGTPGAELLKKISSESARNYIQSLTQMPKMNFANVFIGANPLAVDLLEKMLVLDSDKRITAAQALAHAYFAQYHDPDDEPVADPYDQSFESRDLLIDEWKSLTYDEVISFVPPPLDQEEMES

As to `CNc1cc(Oc2cc(C(=O)Nc3cc(C(C)(C)C)cc(NS(C)(=O)=O)c3OC)ccc2C)ncn1` [3(1), N-(5-tert-butyl-3-methanesulphonylamino-2-methoxy-phenyl)-4-methyl-3-(6-methylamino-pyrimidin-4-yloxy)-benzamide], the inhibition at 1 µM is 97%.
With `COc1c(NC(=O)c2ccc(C)c(Oc3cc(NCCO)ncn3)c2)cc(C(C)(C)C)cc1NS(C)(=O)=O` [4(1), N-(5-tert-butyl-3-methanesulphonylamino-2-methoxy-phenyl)-3-[6-(2-hydroxy-ethylamino)-pyrimidin-4-yloxy]-4-methyl-benzamide], the inhibition at 1 µM was determined as 96.8%.
With `COc1c(NC(=O)c2ccc(C)c(Oc3cc(NCCN(C)C)ncn3)c2)cc(C(C)(C)C)cc1NS(C)(=O)=O` [4(2), N-(5-tert-butyl-3-methanesulphonylamino-2-methoxy-phenyl)-3-[6-(2-dimethylamino-ethylamino)-pyrimidin-4-yloxy]-4-methyl-benzamide] the figure was 94.8%; with `COc1c(NC(=O)c2ccc(C)c(Oc3cc(N4CCNC(=O)C4)ncn3)c2)cc(C(C)(C)C)cc1NS(C)(=O)=O` [4(3), N-(5-tert-butyl-3-methanesulphonylamino-2-methoxy-phenyl)-4-methyl-3-[6-(3-oxo-piperazin-1-yl)-pyrimidin-4-yloxy]-benzamide], 96.3%.
In the case of `COc1c(NC(=O)c2ccc(C)c(Oc3cc(N4CCCC4)ncn3)c2)cc(C(C)(C)C)cc1NS(C)(=O)=O` [4(4), N-(5-tert-butyl-3-methanesulphonylamino-2-methoxy-phenyl)-4-methyl-3-(6-pyrrolidin-1-yl-pyrimidin-4-yloxy)-benzamide], the inhibition at 1 µM amounted to 97.5%.
`COc1c(NC(=O)c2ccc(C)c(Oc3cc(N4CCOCC4)ncn3)c2)cc(C(C)(C)C)cc1NS(C)(=O)=O` [4(5), N-(5-tert-butyl-3-methanesulphonylamino-2-methoxy-phenyl)-4-methyl-3-(6-morpholin-4-yl-pyrimidin-4-yloxy)-benzamide]: the inhibition at 1 µM was found to be 97.4%.
As to `COc1c(NC(=O)c2ccc(C)c(Oc3ccnc(N4CC[C@@H](N(C)C)C4)n3)c2)cc(C(C)(C)C)cc1NS(C)(=O)=O` [4(6), (R)-N-(5-tert-butyl-3-methanesulphonylamino-2-methoxy-phenyl)-3-[2-(3-dimethylamino-pyrrolidin-1-yl)-pyrimidin-4-yloxy]-4-methyl-benzamide], the inhibition at 1 µM amounted to 98%.
With `COc1c(NC(=O)c2ccc(C)c(Oc3ccnc(N4CC[C@H](N(C)C)C4)n3)c2)cc(C(C)(C)C)cc1NS(C)(=O)=O` [4(7), (S)-N-(5-tert-butyl-3-methanesulphonylamino-2-methoxy-phenyl)-3-[2-(3-dimethylamino-pyrrolidin-1-yl)-pyrimidin-4-yloxy]-4-methyl-benzamide] the figure was 98.6%.
As for `COc1c(NC(=O)c2ccc(C)c(Oc3ccnc(N4CCC(N(C)C)CC4)n3)c2)cc(C(C)(C)C)cc1NS(C)(=O)=O` [4(8), N-(5-tert-butyl-3-methanesulphonylamino-2-methoxy-phenyl)-3-[2-(4-dimethylamino-piperidin-1-yl)-pyrimidin-4-yloxy]-4-methyl-benzamide], the inhibition at 1 µM is 98.6%.
The same measure for `COc1c(NC(=O)c2ccc(C)c(Oc3ccnc(NC4CCN(C)CC4)n3)c2)cc(C(C)(C)C)cc1NS(C)(=O)=O` [4(9), N-(5-tert-butyl-3-methanesulphonylamino-2-methoxy-phenyl)-4-methyl-3-[2-(1-methyl-piperidin-4-ylamino)-pyrimidin-4-yloxy]-benzamide]: 98.6%; for `COc1c(NC(=O)c2ccc(C)c(Oc3cc(NC4CCN(C)CC4)ncn3)c2)cc(C(C)(C)C)cc1NS(C)(=O)=O` [4(10), N-(5-tert-butyl-3-methanesulphonylamino-2-methoxy-phenyl)-4-methyl-3-[6-(1-methyl-piperidin-4-ylamino)-pyrimidin-4-yloxy]-benzamide]: 100%.
With `COc1c(NC(=O)c2ccc(C)c(Oc3cc(N4CCC(N(C)C)CC4)ncn3)c2)cc(C(C)(C)C)cc1NS(C)(=O)=O` [4(11), N-(5-tert-butyl-3-methanesulphonylamino-2-methoxy-phenyl)-3-[6-(4-dimethylamino-piperidin-1-yl)-pyrimidin-4-yloxy]-4-methyl-benzamide] the figure was 99.1%; with `COc1c(NC(=O)c2ccc(C)c(Oc3cc(N4CC[C@@H](N(C)C)C4)ncn3)c2)cc(C(C)(C)C)cc1NS(C)(=O)=O` [4(12), N-(5-tert-butyl-3-methanesulphonylamino-2-methoxy-phenyl)-3-[6-((R)-3-dimethylamino-pyrrolidin-1-yl)-pyrimidin-4-yloxy]-4-methyl-benzamide], 95.8%.
On to `COc1c(NC(=O)c2ccc(C)c(Oc3cc(N4CC[C@H](N(C)C)C4)ncn3)c2)cc(C(C)(C)C)cc1NS(C)(=O)=O` [4(13), N-(5-tert-butyl-3-methanesulphonylamino-2-methoxy-phenyl)-3-[6-((S)-3-dimethylamino-pyrrolidin-1-yl)-pyrimidin-4-yloxy]-4-methyl-benzamide], for which the inhibition at 1 µM was 96.3%.
The same measure for `COc1c(NC(=O)c2ccc(Cl)c(Oc3cc(NC4CCN(C)CC4)ncn3)c2)cc(C(C)(C)C)cc1NS(C)(=O)=O` [4(14), N-(5-tert-butyl-3-methanesulphonylamino-2-methoxy-phenyl)-4-chloro-3-[6-(1-methyl-piperidin-4-ylamino)-pyrimidin-4-yloxy]-benzamide]: 99.4%.
The same measure for `COc1c(NC(=O)c2ccc(Cl)c(Oc3ccnc(NC4CCN(C)CC4)n3)c2)cc(C(C)(C)C)cc1NS(C)(=O)=O` [4(15), N-(5-tert-butyl-3-methanesulphonylamino-2-methoxy-phenyl)-4-chloro-3-[2-(1-methyl-piperidin-4-ylamino)-pyrimidin-4-yloxy]-benzamide]: 99.6%.
With `COc1c(NC(=O)c2ccc(C)c(Oc3ccnc(N(C)C4CCN(C)CC4)n3)c2)cc(C(C)(C)C)cc1NS(C)(=O)=O` [4(16), N-(5-tert-butyl-3-methanesulphonylamino-2-methoxy-phenyl)-4-methyl-3-{2-[methyl-(1-methyl-piperidin-4-yl)-amino]-pyrimidin-4-yloxy}-benzamide] the figure was 99.4%.
For `COc1c(NC(=O)c2ccc(C)c(Oc3cc(N(C)C4CCN(C)CC4)ncn3)c2)cc(C(C)(C)C)cc1NS(C)(=O)=O` [4(17), N-(5-tert-butyl-3-methanesulphonylamino-2-methoxy-phenyl)-4-methyl-3-{6-[methyl-(1-methyl-piperidin-4-yl)-amino]-pyrimidin-4-yloxy}-benzamide], the inhibition at 1 µM amounted to 98.7%.
Take `COc1c(NC(=O)c2ccc(C)c(Oc3ccnc(N[C@H]4CC[C@H](N(C)C)CC4)n3)c2)cc(C(C)(C)C)cc1NS(C)(=O)=O` [4(18), N-(5-tert-butyl-3-methanesulphonylamino-2-methoxy-phenyl)-3-[2-(trans-4-dimethylamino-cyclohexylamino)-pyrimidin-4-yloxy]-4-methyl-benzamide]: the inhibition at 1 µM came to 99%.
The same measure for `COc1c(NC(=O)c2ccc(C)c(Oc3ccnc(N(C)C4CCN(C)C4)n3)c2)cc(C(C)(C)C)cc1NS(C)(=O)=O` (centres unmarked) [4(19), N-(5-tert-butyl-3-methanesulphonylamino-2-methoxy-phenyl)-4-methyl-3-{2-[methyl-(1-methyl-pyrrolidin-3-yl)-amino]-pyrimidin-4-yloxy}-benzamide]: 98.6%; for `COc1c(NC(=O)c2ccc(C)c(Oc3cc(N(C)C4CCN(C)C4)ncn3)c2)cc(C(C)(C)C)cc1NS(C)(=O)=O` (centres unmarked) [4(20), N-(5-tert-butyl-3-methanesulphonylamino-2-methoxy-phenyl)-4-methyl-3-{6-[methyl-(1-methyl-pyrrolidin-3-yl)-amino]-pyrimidin-4-yloxy}-benzamide]: 95.6%; for `COc1c(NC(=O)c2ccc(C)c(Oc3cc(N4CCNCC4)ncn3)c2)cc(C(C)(C)C)cc1NS(C)(=O)=O` [5(1), N-(5-tert-butyl-3-methanesulphonylamino-2-methoxy-phenyl)-4-methyl-3-(6-piperazin-1-yl-pyrimidin-4-yloxy)-benzamide]: 96.8%.
With `COc1c(NC(=O)c2ccc(C)c(Oc3cc(C(=O)N4CCNCC4)ncn3)c2)cc(C(C)(C)C)cc1NS(C)(=O)=O` [5(2), N-(5-tert-butyl-3-methanesulphonylamino-2-methoxy-phenyl)-4-methyl-3-[6-(piperazine-1-carbonyl)-pyrimidin-4-yloxy]-benzamide x trifluoroacetic acid], the inhibition at 1 µM was 93.2%.
